Measurements: patent publication US9901621B2, “Composition for treating hyperlipidemia comprising oxyntomodulin derivative” (HANMI PHARM. CO., LTD., priority 2012, dated 2018)
Where a SMILES comes first, the peptide text is derived from it. [ ]: non-standard residue; d: D form. Aib = CC(C)(N)C(=O)O

Columns and labels:
[1] = test system: high-fat diet-induced hyperlipidemia hamsters; assay: Blood lipid levels in high-fat diet hamsters, comparison with VICTOZA (Example 6); type: in vivo, Golden Syrian hamsters; conditions: vs 35.5 nmol/kg VICTOZA s.c., 3.25 nmol/kg SEQ ID NO: 25-Fc or 8.96 nmol/kg SEQ ID NO: 23-Fc s.c.
Description: The effect of reducing lipid levels was compared between the oxyntomodulin derivative conjugate and known VICTOZA®.
As described in Example 5, hamsters were divided into a normal hamster group and hamster groups fed with a high-fat diet. The normal hamster group was administered subcutaneously with 5 ml/kg of DPBS once or more a week. The hamster groups fed with high-fat diet were divided into a group administered subcutaneously with 5 ml/kg of DPBS once or more a week, a group administered subcutaneously with 35.5 nmol/kg of VICTOZA® once or more a week, a group administered subcutaneously with 3.25 nmol/kg of the SEQ ID NO: 25-Fc conjugate, and a group administered subcutaneously with 8.96 nmol/kg of the SEQ ID NO:23-Fc conjugate, and the blood lipid levels of the groups were analyzed.

[2] = test system: high-fat diet-induced hyperlipidemia hamsters; assay: Reduction in lipid levels in hyperlipidemia model hamsters (Example 5); type: in vivo, Golden Syrian hamsters; conditions: vs high-fat diet group, s.c. once a week for 2 weeks, 3.25 nmol/kg SEQ ID NO: 25-Fc or 8.96 nmol/kg SEQ ID NO: 23-Fc
Excerpt: 8 week-old male hamsters (Golden Syrian hamsters, 120-130 g) were purchased from Vital River China. It is known that hamsters show blood lipid profiles similar to humans, unlike other rodents, and are sensitive to high-fat diets.
The animals were allowed access to a sterilized high-fat diet (Purina 5001 containing 11.5% maize oil, 11.5% coconut oil, 0.5% cholesterol, and 0.25% deoxycholate; Dyets, Bethlehem, Pa.) or a standard rodent diet (low fat, 2018; Harlan Teklad, Madison, Wis.). A normal diet group was allowed access to filtered and UV-sterilized tap water, and a high-fat diet group was allowed access to water containing 10% fructose. The animals were kept in a breeding chamber satisfying GLP standards under a 12-hr light/12-hr dark cycle (lighting: am 6 to pm 6), and all the experimental procedures were performed according to the standard guideline for animal experiments. Drug administration was started after 3 weeks of hyperlipidemia induction, and the animals were divided into four groups (n=6) as shown in Table 3 below.
Group 3 (hyperlipidemia-induced group+group administered with 3.25 nmol/kg of SEQ ID NO: 25-Fc conjugate) was fed with a high-fat diet to induce hyperlipidemia, and then administered with 3.25 nmol/kg of the SEQ ID NO: 25-Fc conjugate (prepared in Example 4) once a week at an injection dose of 5 ml/kg.
Group 4 (hyperlipidemia-induced group+group administered with 8.96 nmol/kg of SEQ ID NO: 23-Fc conjugate) was fed with a high-fat diet to induce hyperlipidemia, and then administered with 8.96 nmol/kg of the SEQ ID NO: 23-Fc conjugate (prepared in Example 3) once a week at an injection dose of 5 ml/kg.
Saline or the drug was administered into each group (n=6) for 2 weeks, and then the effects thereof on a reduction in lipid levels were analyzed.
Blood was collected from the hamsters which were administered or not administered with the long-acting oxyntomodulin derivative as described in Example 5-1, and the lipid levels of the blood were analyzed using HITACHI 7020.
FIGS. 1 to 5 show the change in blood triglyceride levels (FIG. 1), the change in blood total cholesterol levels (FIG. 2), the change in LDL-cholesterol levels (FIG. 3), blood HDL-cholesterol levels (FIG. 4), and the change in the blood HDL/LDL-cholesterol ratio (FIG. 5). The obtained results were statistically processed, and the mean values and the standard deviations of the mean values were calculated. In the verification of significance between the groups (n=6), data were statistically processed using Dunnett's test of one-way ANOVA, and a value of p<0.05 was considered statistically significant.

human GLP-1 receptor = target: T1, human GLP-1 receptor (Homo sapiens, UniProt P43220); assay: cAMP response in CHO cells expressing GLP-1 receptor (CHO/GLP-1R); type: cell-based
T1 construct: Using a portion corresponding to the ORF (open reading frame) of cDNA; expressed in transfected cells; host or cells: CHO DG44
Description: The PCR product was cloned into the known animal cell expression vector x0GC/dhfr, thereby constructing the recombinant vector x0GC/GLP-1R.
The recombinant vector x0GC/GLP-1R was introduced into a CHO DG44 cell line, cultured in DMEM/F12 (10% FBS) medium, using lipofectamine (Invitrogene, USA), to obtain a transformant. The transformant was incubated in a selective medium containing 1 mg/mL G418 and 10 nM methotraxate, and monoclonal cell lines were selected therefrom.
(§1) The cultured cells were washed with KRB buffer, suspended in 40 ml of 1 mM IBMX-containing KRB buffer, and then allowed to stand at room temperature for 5 minutes. […] Then, 20 ml of cell lysis buffer was added to lyse the cells, and the concentration of cAMP in each of the cell lysates was measured using a cAMP assay kit (Molecular Device, USA).

human glucagon receptor = target: T2, human glucagon receptor (Homo sapiens, UniProt P47871); assay: cAMP response in CHO cells expressing glucagon receptor (CHO/GCGR); type: cell-based
T2 construct: Using a portion corresponding to the ORF (open reading frame) of cDNA; expressed in transfected cells; host or cells: CHO DG44
Description: The PCR product was cloned into the known animal cell expression vector x0GC/dhfr, thereby constructing the recombinant vector x0GC/GCGR.
The recombinant vector x0GC/GCGR was introduced into a CHO DG44 cell line, cultured in DMEM/F12 (10% FBS) medium, using lipofectamine (Invitrogene, USA), to obtain a transformant. The transformant was incubated in a selective medium containing 1 mg/mL G418 and 10 nM methotraxate, and monoclonal cell lines were selected therefrom.
as §1

T2 sequence (P47871 26-477): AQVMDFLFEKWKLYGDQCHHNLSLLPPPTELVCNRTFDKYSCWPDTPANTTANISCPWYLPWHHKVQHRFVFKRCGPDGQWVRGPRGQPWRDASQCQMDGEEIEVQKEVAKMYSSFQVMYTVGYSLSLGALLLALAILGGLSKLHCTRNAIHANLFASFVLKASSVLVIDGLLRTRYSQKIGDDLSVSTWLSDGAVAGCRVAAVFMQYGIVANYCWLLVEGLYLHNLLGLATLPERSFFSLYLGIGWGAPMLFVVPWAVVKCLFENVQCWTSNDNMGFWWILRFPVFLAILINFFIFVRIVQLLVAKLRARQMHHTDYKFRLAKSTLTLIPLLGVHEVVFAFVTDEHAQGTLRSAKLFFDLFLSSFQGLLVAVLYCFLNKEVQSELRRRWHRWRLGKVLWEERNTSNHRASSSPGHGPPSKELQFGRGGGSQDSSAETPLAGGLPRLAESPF
T1 sequence (P43220 24-463): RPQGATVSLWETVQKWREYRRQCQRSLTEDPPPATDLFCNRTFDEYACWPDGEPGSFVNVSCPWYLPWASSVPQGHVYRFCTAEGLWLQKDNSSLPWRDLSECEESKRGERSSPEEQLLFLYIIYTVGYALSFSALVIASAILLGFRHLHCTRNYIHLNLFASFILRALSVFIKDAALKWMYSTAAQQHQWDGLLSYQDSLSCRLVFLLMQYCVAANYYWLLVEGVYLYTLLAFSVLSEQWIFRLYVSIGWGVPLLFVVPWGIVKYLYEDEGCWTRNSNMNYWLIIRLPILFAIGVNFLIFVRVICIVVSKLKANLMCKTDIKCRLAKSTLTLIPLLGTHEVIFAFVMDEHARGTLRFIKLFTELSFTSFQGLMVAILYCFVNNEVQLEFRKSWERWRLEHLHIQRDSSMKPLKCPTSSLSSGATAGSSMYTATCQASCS

Compound	blood total cholesterol levels compared to VICTOZA ([1]; FIG. 6)	blood LDL-cholesterol level compared to VICTOZA ([1]; FIG. 7)	blood HDL-cholesterol levels compared to VICTOZA ([1]; FIG. 8)	HDL/LDL-cholesterol ratio compared to VICTOZA ([1]; FIG. 9)	blood triglyceride levels compared to VICTOZA ([1]; FIG. 10)	blood triglyceride levels ([2]; FIG. 1)	blood total cholesterol levels ([2]; FIG. 2)	blood LDL-cholesterol levels ([2]; FIG. 3)	blood HDL-cholesterol levels ([2]; FIG. 4)	blood HDL/LDL-cholesterol ratio ([2]; FIG. 5)	EC50 (human GLP-1 receptor) [nM]	EC50 (human glucagon receptor) [nM]
SEQ ID NO: 25-Fc conjugate: oxyntomodulin derivative of SEQ ID NO: 25 linked at cysteine 30 via MAL-10K-ALD PEG to immunoglobulin Fc (Example 4) (HXQGTFTSDYSKYLDEKRAKEFVQWLMNTC; PEG linker at Cys30 to immunoglobulin Fc; MOD_RES (2)..(2) Aib; (16)..(20) Ring formation between residues)	decrease	decrease	significant increases	significant increases	decrease	significantly decreased	significantly decreased	significantly decreased	significant increase	significant increase	–	–
CSCC[C@H](NC(=O)[C@H](CC(C)C)NC(=O)[C@H](Cc1c[nH]c2ccccc12)NC(=O)[C@H](CS)NC(=O)[C@@H](NC(=O)[C@H](Cc1ccccc1)NC(=O)[C@H](CCC(=O)O)NC(=O)[C@H](CCCCN)NC(=O)[C@H](C)NC(=O)[C@H](CCCNC(=N)N)NC(=O)[C@H](CCCCN)NC(=O)[C@H](CCC(=O)O)NC(=O)[C@H](CC(=O)O)NC(=O)[C@H](CC(C)C)NC(=O)[C@H](Cc1ccc(O)cc1)NC(=O)[C@H](CCCCN)NC(=O)[C@H](CO)NC(=O)[C@H](Cc1ccc(O)cc1)NC(=O)[C@H](CC(=O)O)NC(=O)[C@H](CO)NC(=O)[C@@H](NC(=O)[C@H](Cc1ccccc1)NC(=O)[C@@H](NC(=O)CNC(=O)[C@H](CCC(N)=O)NC(=O)C(C)(C)NC(=O)[C@@H](N)Cc1c[nH]cn1)[C@@H](C)O)[C@@H](C)O)C(C)C)C(=O)N[C@@H](CC(N)=O)C(=O)N[C@H](C(=O)O)[C@@H](C)O [SEQ ID NO: 23] (H-H[Aib]QGTFTSDYSKYLDEKRAKEFVCWLMNT-OH; C-terminus assumed)	–	–	–	–	–	–	–	–	–	–	2.46	5.8
